From patent US20200178586A1, “PEPTIDE” (FUJI OIL HOLDINGS INC., priority 2017, published 2020) come the findings set out here.

Entries after “also recorded” stand apart in the source; their conditions may differ. Marks after values point to notes of the source that are not given here. *1 amine or outer side, *2 acyl side, *3 side chain or, on linkers, in order; H or OH if unused. Where no end group is shown, it is not given here. [ ]: non-standard residue; d: D form. γGlu = O=C(O)[C@H](CCC(=O)[*:2])N[*:1]

Assay [1] is described as follows: Sensory evaluation of body taste-imparting effect of γ-glutamyl peptides in umami solution and sweet taste solution (Example 2). To be noted: for Initial-middle taste / Middle-after taste: average score of 7 trained panelists, 5 levels, control = 3 points; for body taste of from the initial taste to middle taste (in words) / persistence of the aftertaste (in words) / taste from the middle taste to aftertaste (in words): umami and sweet taste solutions, summary of Table 1. The protocol: Umami solution containing 0.7% MSG-0.4% NaCl and Sweet taste solution containing 6% sucrose were used as controls (3 points). And, sample solution was prepared by adding each γ-glutamyl peptide to the control. As comparative controls, γ-Glu-Val-Gly disclosed in Patent Document 1 and Patent Document 6 were used. The panelists were 7 trained panelists at Fuji Oil Holdings Inc. And, the panelist evaluated a body taste of from initial taste to middle taste, a thickness of from middle taste to aftertaste, and persistence with the following five levels.
(§1) 5 points: feels much stronger than the control 4 points: feels stronger than the control 3 points: feels the same as the control 2 points: feels a little weaker than the control 1 point: feels much weaker than the control

Assay [2] in a line: Sensory evaluation of body taste-imparting effect on sweet taste solution (Example 3). The settings on record: Sweet taste solution (6% sucrose), 100 ppm peptide; for Initial-middle taste: average score of eight trained panelists, 5 levels, control = 3 points; for body taste-imparting effect (in words): summary of FIG. 3 and Table 2. The protocol:
Sweet taste solution containing 6% sucrose was used as a control (3 points). And, sample solution was prepared by adding 100 ppm of each γ-glutamyl tripeptide to the control. As comparative controls, γ-Glu-γ-Glu-Val and γ-Glu-γ-Glu-α-Glu-Tyr were used. The panelists were eight trained panelists at Fuji Oil Holdings Inc. And, the panelist evaluated a body taste of from initial taste to middle taste with the following five levels.
as §1

Setting [3] is: Sweet taste solution (6% sucrose).
[4] abbreviates: Umami solution (0.7% MSG-0.4% NaCl).

For the substance [γGlu]-Tyr [reference compound], in assay [1] (setting [3]), the Initial-middle taste stood at 3.5 points and the Middle-after taste is given as 3.9* points. Besides, in assay [1] (setting [4]), the Initial-middle taste worked out at 3.5 points and the Middle-after taste was 3.9* points. For the same substance, in assay [1], the “body taste of from the initial taste to middle taste (in words)” value (from here on “body taste of from the initial taste”) was “imparted little body taste”, the “persistence of the aftertaste (in words)” value is reported as “persistent of the strong aftertaste” and the “taste from the middle taste to aftertaste (in words)” value is “strong”.
As to [γGlu]-Val-Gly [reference compound], in assay [1] (setting [3]), the Initial-middle taste was 3.6 points and the Middle-after taste is reported as 4.3* points. Moreover, in assay [1] (setting [4]), the Initial-middle taste is reported as 3.6 points and the Middle-after taste is recorded as 4.8* points. Besides, in assay [1], the “body taste of from the initial taste” value was “imparted little body taste”, the “persistence of the aftertaste (in words)” value was “persistent of the strong aftertaste” and the “taste from the middle taste to aftertaste (in words)” value is “strong”.
Turning to [γGlu]-[γGlu]-Tyr, in assay [1] (setting [3]), the Initial-middle taste is given as 4.0* points and the Middle-after taste is 3.7* points. For the same substance, in assay [1] (setting [4]), the Initial-middle taste is given as 4.0* points and the Middle-after taste was 3.9* points. Further, in assay [1], the “body taste of from the initial taste” value is reported as “imparted the body taste overall” and the “persistence of the aftertaste (in words)” value is on record as “suppressed”.
Consider [γGlu]-[γGlu]-Val, for which the Initial-middle taste in assay [2] turned out to be 3.1 points.
As to [γGlu][γGlu]EY, in assay [2], the Initial-middle taste is 3.4 points and the “body taste-imparting effect (in words)” value is recorded as “an effect was also observed”.
Turning to [γGlu][γGlu][γGlu]A, in assay [2], the Initial-middle taste is reported as 3.4 points and the “body taste-imparting effect (in words)” value is on record as “particularly effective”.
For the substance [γGlu][γGlu][γGlu]C, the Initial-middle taste in assay [2] was 3.0 points.
As to [γGlu][γGlu][γGlu]D, in assay [2], the Initial-middle taste was 3.4 points and the “body taste-imparting effect (in words)” value was “particularly effective”.
On to [γGlu][γGlu][γGlu]E, for which, in assay [2], the Initial-middle taste is 3.5* points and the “body taste-imparting effect (in words)” value is reported as “particularly effective”.
For [γGlu][γGlu][γGlu]F, in assay [2], the Initial-middle taste is recorded as 3.4 points and the “body taste-imparting effect (in words)” value is “particularly effective”.
[γGlu][γGlu][γGlu]G showed an Initial-middle taste in assay [2] of 3.1 points.
On to [γGlu][γGlu][γGlu]H, for which, in assay [2], the Initial-middle taste is listed as 3.5* points and the “body taste-imparting effect (in words)” value is given as “particularly effective”.
For [γGlu][γGlu][γGlu]I, in that order: 3.4 points and “particularly effective”.
In assay [2], [γGlu][γGlu][γGlu]K showed an Initial-middle taste of 3.1 points.
Turning to [γGlu][γGlu][γGlu]L, in assay [2], the Initial-middle taste is 3.3 points and the “body taste-imparting effect (in words)” value is recorded as “particularly effective”.
For the substance [γGlu][γGlu][γGlu]M, the Initial-middle taste in assay [2] is listed as 3.0 points.
On to [γGlu][γGlu][γGlu]N, for which the Initial-middle taste in assay [2] is recorded as 3.3 points.
Take [γGlu][γGlu][γGlu]P: in assay [2], the Initial-middle taste was 3.1 points.
On the same count and under the same terms, as for [γGlu][γGlu][γGlu]Q, the figure is 3.3 points.
Take [γGlu][γGlu][γGlu]R: in assay [2], the Initial-middle taste is on record as 4.1** points and the “body taste-imparting effect (in words)” value is “particularly effective”.
In the case of [γGlu][γGlu][γGlu]S, in assay [2], the Initial-middle taste is listed as 3.4 points and the “body taste-imparting effect (in words)” value is on record as “particularly effective”.
For [γGlu][γGlu][γGlu]T, the Initial-middle taste in assay [2] was found to be 2.9 points.
Consider [γGlu][γGlu][γGlu]V, for which, in assay [2], the Initial-middle taste is 3.4 points and the “body taste-imparting effect (in words)” value is given as “particularly effective; also recorded: superior to γ-Glu-γ-Glu-Val”.
As to [γGlu][γGlu][γGlu]W, in assay [2], the Initial-middle taste is recorded as 3.1 points.
Regarding [γGlu][γGlu][γGlu]Y, in assay [1] (setting [3]), the Initial-middle taste is reported as 4.3* points and the Middle-after taste was 4.3* points. Also, in assay [1] (setting [4]), the Initial-middle taste is 4.1* points and the Middle-after taste is given as 4.0* points. In addition, in assay [1], the “body taste of from the initial taste” value is recorded as “imparted the body taste overall” and the “persistence of the aftertaste (in words)” value was “suppressed”. Further, in assay [2], the Initial-middle taste is reported as 4.3** points and the “body taste-imparting effect (in words)” value is listed as “particularly effective”.
For [γGlu][γGlu][γGlu][γGlu]Y, in assay [1] (setting [3]), the Initial-middle taste is given as 3.9* points and the Middle-after taste turned out to be 3.6 points. Besides, in assay [1] (setting [4]), the Initial-middle taste is listed as 3.9* points and the Middle-after taste came out at 3.7 points. For the same substance, the “body taste of from the initial taste” value in assay [1] was “sufficiently imparted a body taste”.
